Data: patent US3959272A, “Aminoalkyl esters of 2-anilino-nicotinic acids” (Societe Anonyme dite: Hexachime, priority 1972, dated 1976)

Tests used:
[1] = Acute toxicity in the rat; settings: in vivo
[2] = Anti-inflammatory activity: oedema provoked by carragenin in the rat; type: in vivo; settings: po, read-out: percentage inhibition of oedema
Experimental: The method used was as follows.
The anti-inflammatory activity was measured on oedema provoked by carragenin in the rat. Groups of six male rats each weighing 120 to 130 g received the compound under test orally in suspension in "tween 80", half the dose being given 2 hours before and the other half 1/2 hour before the subcutaneous plantar injection of 0.05 ml of a 1 % carragenin solution. The volume of the injected paw was measured by plethysmography at regular intervals. Table 1 below gives the percentage inhibition of the oedema with reference to untreated controls.

[3] = Acute toxicity in the mouse; settings: in vivo
[4] = Potentiation of stereotypes by amphetamine; type: in vivo, rat; settings: 5 mg/kg dexamphetamine sulphate
Experimental: The compound under test was administered to groups of 5 rats intraperitoneally. Thirty minutes afterwards, 5 mg/kg of dexamphetamine sulphate was injected intraperitoneally. The duration of the phenomenon is counted at regular intervals from 0 to 4 and the counts are added up.

[5] = Escape test; type: in vivo; settings: Mus musculus, ip, 0.5 h, read-out: Percentage inhibition (number of attempts to escape)
Experimental: Groups of 8 mice were placed in sub groups of 4 in an enclosure from which they could escape by an inclined plane. The number of attempts to escape during 5 minutes were counted half an hour after intraperitoneal administration of the compound under test.

[6] = Action on the activity of noradrenaline in dogs; settings: dog, in vivo
[7] = Analgesic activity: Randall and Selitto's test (beer yeast paw, pain threshold); type: in vivo, rat
Experimental: This activity was measured by Siegmund's test in mice and Randall and Selitto's test in the rat. Groups of ten male rats each weight 120 to 140 g received by subcutaneous plantar injection 0.05 ml of a 5% aqueous suspension of beer yeast. 2 Hours after this treatment they received the compound under test orally and 1 hour after administration of this compound the paw which had been injected and the contralateral paw were subjected to increasing pressure. The appearance of the pain threshold was noted.

[8] = Laparotomy test; type: in vivo, rat; settings: as the hydrochloride; for ED50: Rattus norvegicus, ip, intraperitoneal
Experimental: Rats weighing 110 to 130 g each received the product of Example 1 (as the hydrochloride) by intraperitoneal injection. 10 or 30 Minutes after the treatment, the animals are examined to see:
1. If they allow themselves to remain lying on their backs;
3. if they tolerate an incision into the skin; and
4. if they tolerate an incision into the muscle. If an animal submits without reaction it is counted as zero, and if it reacts it is counted as one. The total score is calculated for each dosage. The following table gives the percentage protection and the number of sleeping rats.

[9] = Post-operative pain following bone surgery, patients; type: in vivo, human (patients)
Experimental: The product of Example 1 has been administered to patients suffering from post-operative pain following bone surgery. 10 Patients received the compound at a daily dosage of 150 mg orally. Complete or partial analgesia was felt by 5 patients and slight analgesia by a further 4. When administered intramuscularly at a dosage of 20 to 100 mg per day to 9 patients, the product of Example 1 produced complete analgesia in 5, partial analgesia in 2 and slight analgesia in the remaining 2. […] Eight patients received the product of Example 1 rectally in a dosage of 300 mg per day.

[10] = Overall result of the pharmacological tests; type: in vivo; settings: according to the results obtained
Source text: The new compounds show these properties in the tests usually used to determine them.

[11] = Hypnotic activity in rats or mice (loss of righting reflex); type: in vivo; settings: for % of sleeping animals: mice
Experimental: The compounds under test were administered to rats or mice intraperitoneally. The loss of the righting reflex was noted and the duration of sleep measured objectively with reference to the loss of the righting reflex. The compounds under test were also administered by slow perfusion to dogs. The moment when the dog fell asleep and the duration of sleep was noted.

[12] = 150 mg daily orally, 10 patients
[13] = 300 mg per day rectally, eight patients
[14] = 20 to 100 mg per day intramuscularly, 9 patients
[15] = 50 to 100 mg per day intravenously, slow injection, 13 patients

`Cc1cccc(Nc2ncccc2C(=O)OCCN2CCOCC2)c1C` [Example 1, β-Morpholino ethyl nixylate] showed an LD50 at 168 h ([1]; ip) of 875 mg/kg, an LD50 at 168 h ([1]; po) greater than 2350 mg/kg and an inhibition in vivo at 16 mg/kg ([2]; 16 mg/kg orally) of 16%. The inhibition in vivo at 32 mg/kg ([2]; 32 mg/kg orally) was 20%, the inhibition in vivo at 64 mg/kg ([2]; 64 mg/kg orally) was 34% and the inhibition in vivo at 128 mg/kg ([2]; 128 mg/kg orally) was 45%. The inhibition in vivo at 256 mg/kg ([2]; 256 mg/kg orally) was 61%, the LD50 at 168 h ([3]; ip) was 700 mg/kg and the LD50 at 168 h ([3]; iv) was 110 mg/kg. The LD50 at 168 h ([3]; po) was 1600 mg/kg, the “Sum of the counts (stereotypes)” value ([4]; 8 mg/kg intraperitoneally) was 14 and the “Sum of the counts (stereotypes)” value ([4]; 16 mg/kg intraperitoneally) was 18. The “Sum of the counts (stereotypes)” value ([4]; 32 mg/kg intraperitoneally) was 21, the “Sum of the counts (stereotypes)” value ([4]; 64 mg/kg intraperitoneally) was 33 and the “Sum of the counts (stereotypes)” value ([4]; 128 mg/kg intraperitoneally) was 43. The change in vivo at 8 mg/kg ([5]; 8 mg/kg intraperitoneally) was 6%, the change in vivo at 16 mg/kg ([5]; 16 mg/kg intraperitoneally) was 3% and the change in vivo at 32 mg/kg ([5]; 32 mg/kg intraperitoneally) was -8%. The change in vivo at 64 mg/kg ([5]; 64 mg/kg intraperitoneally) was -51%, the change in vivo at 128 mg/kg ([5]; 128 mg/kg intraperitoneally) was -100% and the “action on the activity of noradrenaline” value [6] was “without action on the activity of noradrenaline”. For the same compound, the “percentage increase of pain threshold” value ([7]; with yeast, 8 mg/kg orally) was 15%, the “percentage increase of pain threshold” value ([7]; with yeast, 16 mg/kg orally) was 68% and the “percentage increase of pain threshold” value ([7]; with yeast, 32 mg/kg orally) was 90%. The “percentage increase of pain threshold” value ([7]; with yeast, 64 mg/kg orally) was 83%, the “percentage increase of pain threshold” value ([7]; with yeast, 128 mg/kg orally) was 120% and the “percentage increase of pain threshold” value ([7]; with yeast, 256 mg/kg orally) was 161%. The “percentage increase of pain threshold” value ([7]; without yeast, 8 mg/kg orally) was 37%, the “percentage increase of pain threshold” value ([7]; without yeast, 16 mg/kg orally) was 29% and the “percentage increase of pain threshold” value ([7]; without yeast, 32 mg/kg orally) was 51%. For the same compound, the “percentage increase of pain threshold” value ([7]; without yeast, 64 mg/kg orally) was 72%, the “percentage increase of pain threshold” value ([7]; without yeast, 128 mg/kg orally) was 101% and the “percentage increase of pain threshold” value ([7]; without yeast, 256 mg/kg orally) was 126%. The ED50 ([8]; 10 min, 10 min after treatment) was 44 mg/kg, the ED50 ([8]; 0.5 h, 30 min after treatment) was 100 mg/kg and the Percentage protection ([8]; 16 mg/kg intraperitoneally, 10 min after treatment, 12 rats) was 6%. For the same compound, the “Number of sleeping rats” value ([8]; 16 mg/kg intraperitoneally, 10 min after treatment, of 12 rats) was 0, the Percentage protection ([8]; 16 mg/kg intraperitoneally, 30 min after treatment, 6 rats) was 0% and the “Number of sleeping rats” value ([8]; 16 mg/kg intraperitoneally, 30 min after treatment, of 6 rats) was 0. The Percentage protection ([8]; 32 mg/kg intraperitoneally, 10 min after treatment, 12 rats) was 34%, the “Number of sleeping rats” value ([8]; 32 mg/kg intraperitoneally, 10 min after treatment, of 12 rats) was 0 and the Percentage protection ([8]; 32 mg/kg intraperitoneally, 30 min after treatment, 6 rats) was 0%. The “Number of sleeping rats” value ([8]; 32 mg/kg intraperitoneally, 30 min after treatment, of 6 rats) was 0, the Percentage protection ([8]; 64 mg/kg intraperitoneally, 10 min after treatment, 24 rats) was 62% and the “Number of sleeping rats” value ([8]; 64 mg/kg intraperitoneally, 10 min after treatment, of 24 rats) was 0. For the same compound, the Percentage protection ([8]; 64 mg/kg intraperitoneally, 30 min after treatment, 24 rats) was 34%, the “Number of sleeping rats” value ([8]; 64 mg/kg intraperitoneally, 30 min after treatment, of 24 rats) was 0 and the Percentage protection ([8]; 128 mg/kg intraperitoneally, 10 min after treatment, 12 rats) was 96%. For the same compound, the “Number of sleeping rats” value ([8]; 128 mg/kg intraperitoneally, 10 min after treatment, of 12 rats) was 0, the Percentage protection ([8]; 128 mg/kg intraperitoneally, 30 min after treatment, 12 rats) was 62% and the “Number of sleeping rats” value ([8]; 128 mg/kg intraperitoneally, 30 min after treatment, of 12 rats) was 8. For the same compound, the Percentage protection ([8]; 256 mg/kg intraperitoneally, 30 min after treatment, 6 rats) was 92%, the “Number of sleeping rats” value ([8]; 256 mg/kg intraperitoneally, 30 min after treatment, of 6 rats) was 6 and the “complete or partial analgesia” value [9, 12] was 5 patients. The slight analgesia [9, 12] was 4 patients, the moderate analgesia [9, 13] was “one” and the no analgesia [9, 13] was “the last one no analgesia”. The strong analgesia [9, 13] was “Six”, the complete analgesia [9, 14] was 5 patients and the partial analgesia [9, 14] was 2 patients. For the same compound, the slight analgesia [9, 14] was 2 patients, the complete analgesia [9, 15] was 9 patients and the moderate analgesia [9, 15] was 3 patients. The no analgesia [9, 15] was “no analgesia in the remaining patient”, the “activity relative to the other compounds” value [10] was “the most active compound” and the “% of sleeping animals” value ([11]; 50 mg/kg intraperitoneally) was 0%. The “% of sleeping animals” value ([11]; 75 mg/kg intraperitoneally) was 46%, the “% of sleeping animals” value ([11]; 100 mg/kg intraperitoneally) was 57% and the “% of sleeping animals” value ([11]; 125 mg/kg intraperitoneally) was 84%. The “% of sleeping animals” value ([11]; 200 mg/kg intraperitoneally) was 92%, the “% of sleeping animals” value ([11]; 250 mg/kg intraperitoneally) was 100% and the sleep caused ([11]; only this product of those tested) was “caused sleep”.
